From PubChem BioAssay (NCI)
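Step 1: Grow cells in 96-well plates. Step 2: Expose to compound for 48 hours at 5 concentrations. Step 3: Interpolate endpoints linearly; if unreached, use highest concentration. GI50 = concentration required for 50% inhibition of growth. Definition used: TGI = concentration required for complete inhibition of growth.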

Experiments:
Assay in all cases: growth of human tumour cells (NCI), 48 h
[1] = test system: A549 NSCLC
[2] = test system: MALME-3M melanoma
[3] = test system: MOLT-4 leukemia
[4] = test system: NCI-H226 lung
[5] = test system: NCI-H522 lung
[6] = test system: RXF 393 renal
[7] = test system: SK-MEL-28 melanoma
[8] = test system: SK-OV-3 ovarian
[9] = test system: BT-549 breast
[10] = test system: MDA-MB-231 breast

For O=C(c1ccccc1)C(c1ccccc1)C1(O)C(=O)Nc2ccc(Br)cc21 (configuration not stated), the TGI [1] was over 100 µM, the TGI [2] was over 100 µM and the TGI [3] was over 100 µM. The TGI [4] was over 100 µM, the TGI [5] was 59.6 µM and the TGI [6] was over 100 µM. It also gave a TGI [7] of over 100 µM and a TGI [8] of over 100 µM.

COc1ccc2c(C(=O)NCCCCCC(=O)O)cc3cc4c(cc3c2c1)OCO4 was tested, and the GI50 [1] was over 100 µM, the TGI [1] was over 100 µM and the GI50 [9] was 75.5 µM. The TGI [9] was over 100 µM, the GI50 [2] was over 100 µM and the TGI [2] was over 100 µM. It also gave a GI50 [10] of 99.5 µM, a TGI [10] of over 100 µM and a GI50 [3] of over 100 µM. It also gave a TGI [3] of over 100 µM, a GI50 [4] of 83.5 µM and a TGI [4] of over 100 µM. For the same molecule, the GI50 [6] was over 100 µM, the TGI [6] was over 100 µM and the GI50 [7] was over 100 µM. It also gave a TGI [7] of over 100 µM, a GI50 [8] of over 100 µM and a TGI [8] of over 100 µM.

Work on Cc1cc(=O)[nH]c2c1C(=O)C(=O)C=C2 yielded a GI50 [1] of 81.9 µM, a TGI [1] of over 100 µM and a GI50 [9] of 57.8 µM. For the same molecule, the TGI [9] was over 100 µM, the GI50 [2] was 29.8 µM and the TGI [2] was 96.8 µM. The GI50 [10] was 21.2 µM, the TGI [10] was 45.2 µM and the GI50 [3] was 39.5 µM. The TGI [3] was over 100 µM, the GI50 [4] was 28.6 µM and the TGI [4] was 73 µM. The GI50 [5] was over 100 µM, the TGI [5] was over 100 µM and the GI50 [7] was over 100 µM. It also gave a TGI [7] of over 100 µM, a GI50 [8] of over 100 µM and a TGI [8] of over 100 µM.

O=c1c(-c2nc3ccccc3[nH]2)cc2ccccc2n1Cc1cn(Cc2ccc(F)cc2)nn1 showed a GI50 [1] of 0.116 µM, a TGI [1] of over 100 µM and a GI50 [9] of 0.164 µM. It also gave a TGI [9] of over 40.5 µM, a GI50 [2] of 0.213 µM and a TGI [2] of 66.4 µM. It also gave a GI50 [10] of 0.313 µM, a TGI [10] of 8.41 µM and a GI50 [3] of 0.233 µM. The TGI [3] was over 100 µM, the GI50 [4] was 0.572 µM and the TGI [4] was over 100 µM. For the same molecule, the GI50 [5] was 0.0957 µM, the GI50 [6] was 0.125 µM and the TGI [6] was 0.484 µM. The GI50 [8] was 0.328 µM and the TGI [8] was 4.63 µM.

COc1cc(/C=C/C(=O)c2ccc(SC)cc2)cc(OC)c1OC showed a GI50 [1] of 6.25 µM, a TGI [1] of 20.7 µM and a GI50 [9] of 10.1 µM. It also gave a TGI [9] of 24.6 µM, a GI50 [2] of 6.31 µM and a TGI [2] of 26.1 µM. For the same molecule, the GI50 [10] was 4.46 µM, the TGI [10] was 17.2 µM and the GI50 [3] was 3.14 µM. For the same molecule, the TGI [3] was 8.65 µM, the GI50 [5] was 8.82 µM and the TGI [5] was 23.8 µM. It also gave a GI50 [6] of 2.62 µM, a TGI [6] of 7.01 µM and a GI50 [7] of 16.9 µM. The TGI [7] was 32.5 µM, the GI50 [8] was 15.8 µM and the TGI [8] was 30.6 µM.

Molecule O=C(Nc1ccc(-n2cc(-c3ccncc3)c(-c3ccc(Cl)c(O)c3)n2)cc1)c1ccc(Cl)c(C(F)(F)F)c1 has a GI50 [1] of 5.41 µM, a TGI [1] of over 31.4 µM and a GI50 [9] of 1.12 µM. For the same molecule, the TGI [9] was 12.6 µM, the GI50 [10] was 0.322 µM and the TGI [10] was 1.48 µM. For the same molecule, the GI50 [3] was 0.652 µM, the TGI [3] was over 29.3 µM and the GI50 [4] was 16.3 µM. The TGI [4] was over 71 µM, the GI50 [5] was 1.14 µM and the TGI [5] was 4.04 µM. It also gave a GI50 [6] of 0.213 µM, a TGI [6] of 0.606 µM and a GI50 [7] of 1.18 µM. For the same molecule, the TGI [7] was 3.6 µM, the GI50 [8] was 1.81 µM and the TGI [8] was 8.81 µM.

COc1cc(C2C(Cl)C(=O)N2NC(=O)c2ccccc2O)cc(OC)c1OC (configuration not stated) gave a TGI [1] of over 10 µM, a TGI [9] of over 10 µM and a TGI [3] of over 10 µM. For the same molecule, the TGI [4] was over 10 µM, the TGI [5] was 8.21 µM and the TGI [6] was over 10 µM.

Work on COc1cc(C2C(C(=O)Nc3ccccc3C)=C(C)NC(C)=C2C(=O)Nc2ccccc2C)ccc1O yielded a TGI [1] of over 100 µM, a TGI [2] of over 100 µM and a TGI [3] of over 100 µM. For the same molecule, the TGI [4] was over 100 µM, the TGI [5] was over 100 µM and the TGI [6] was over 100 µM. It also gave a TGI [7] of over 100 µM and a TGI [8] of over 100 µM.

COc1ccc(/C=N/C2=C(C#N)C(c3ccccc3)c3ccc4ccccc4c3O2)cc1 (configuration not stated) was tested, and the GI50 [1] was 0.641 µM, the TGI [1] was over 100 µM and the GI50 [9] was 0.793 µM. It also gave a TGI [9] of over 100 µM, a TGI [2] of over 100 µM and a GI50 [10] of 0.522 µM. For the same molecule, the TGI [10] was 8.39 µM, the GI50 [3] was 0.516 µM and the TGI [3] was over 100 µM. The GI50 [4] was 2.08 µM, the TGI [4] was over 100 µM and the GI50 [5] was 0.128 µM. For the same molecule, the TGI [5] was 5.5 µM, the GI50 [7] was 1.37 µM and the TGI [7] was over 100 µM. For the same molecule, the GI50 [8] was 0.539 µM and the TGI [8] was over 100 µM.

For CSc1nnc2n1-c1ccccc1SCC2, the TGI [1] was over 100 µM, the TGI [2] was over 100 µM and the TGI [3] was over 100 µM. The TGI [4] was over 100 µM, the TGI [5] was over 100 µM and the TGI [6] was over 100 µM. The TGI [7] was over 100 µM and the TGI [8] was over 100 µM.

In the case of COc1cc(-c2nc3cc(Cl)c(Cl)cc3[nH]2)ccc1OCC(=O)N=Nc1c(O)[nH]c2ccccc12, the GI50 [1] is reported as 1.41 µM, the TGI [1] is reported as 14.1 µM and the GI50 [9] is reported as 0.822 µM. The TGI [9] was 2.29 µM, the GI50 [2] was 0.226 µM and the TGI [2] was 0.683 µM. For the same molecule, the GI50 [10] was 0.45 µM, the TGI [10] was 1.69 µM and the GI50 [4] was 1.04 µM. It also gave a TGI [4] of 2.67 µM, a GI50 [5] of 0.301 µM and a TGI [5] of 2.18 µM. The GI50 [6] was 0.678 µM, the TGI [6] was 2.1 µM and the GI50 [7] was 1.38 µM. It also gave a TGI [7] of 2.68 µM, a GI50 [8] of 1.91 µM and a TGI [8] of 4.39 µM.

With C/C(=N\O)c1ccc(Nc2cc(-c3ccccc3)nc3c(O)cccc23)cc1 the GI50 [1] was 10.2 µM, the TGI [1] was 31 µM and the GI50 [9] was 23.3 µM. For the same molecule, the TGI [9] was 86.6 µM, the GI50 [2] was 16.1 µM and the TGI [2] was 30.3 µM. It also gave a GI50 [10] of 2.46 µM, a TGI [10] of 11.8 µM and a GI50 [4] of 14.7 µM. The TGI [4] was 31.8 µM, the GI50 [5] was 16.7 µM and the TGI [5] was 33.3 µM. The GI50 [6] was 7.47 µM, the TGI [6] was 24.7 µM and the GI50 [7] was 14.5 µM. For the same molecule, the TGI [7] was 32.3 µM, the GI50 [8] was 27.4 µM and the TGI [8] was 56.1 µM.
